According to patent US20250114377A1, “TWO-PRONGED TREATMENT FOR NIEMANN PICK TYPE C DISEASE” (UNIVERSITY OF NOTRE DAME DU LAC, priority 2022, published 2025):

How the values were obtained:
[1] = test system: LE/L membrane tubule projection, COS-7 cells; assay: LE/L tubule projection of NPC1-containing membranes with microtubule drugs; format: cell-based; conditions: FP-tagged NPC1 membranes, live-cell imaging
Excerpt: Although it is well-accepted that mutations in NPC1 are responsible for ˜95% of human cases of NPC disease, there is less consensus on the specific cellular activities NPC1 is responsible for. For example, both the N-terminal domain and the sterol-sensing domain of NPC1 are thought to bind cholesterol and mediate the movement of lumenal cholesterol across the limiting membrane of LE/Ls. However, the lipids that over-accumulate in NPC disease are not limited to cholesterol and include oxysterols, sphingolipids, gangliosides and GPI-anchored proteins. Furthermore, the pathological accumulations of cholesterol have been proposed to affect the functional state of LE/Ls directly, including perturbing calcium uptake, autophagy/mitophagy and the thickness of the glycocalyx. However, the specific ways in which NPC1 mutations affect these parameters remain unclear. With this wide range of unknowns in mind, we generated a FP-tagged NPC1 plasmid construct for expression in mammalian cells. […] Also overlapping with previous observations, LE/L membranes incorporating FP-tagged NPC1 projected a population of long, slender, dynamic membrane tubules that emerged from the surface of stationary LE/Ls and extended towards the cell periphery (See Sterling, FIG. 1A and Sup Vid. 1). […]

[2] = test system: lysosomal tubulation; assay: Rescue of lysosomal tubulation with purified oxysterols in LDL-depleted media (FIG. 4); format: cell-based; conditions: media depleted of LDL supplemented with the oxysterol; 24-HC p<0.005, 25-HC p<0.0001
Method: FIG. 4. Rescue of Lysosomal Tubulation with Purified Oxysterols. Measurements of lysosomal tubulation comparing control complete media (Control) to media depleted of LDL (LDL−) and depleted media supplemented with 27-hydroxycholesterol (27-HC), 24-hydroxycholesterol (24-HC) or 25-hydroxycholesterol (25-HC).
Fixed and live-cell imaging was performed on COS-7 cells grown in Dulbecco's Modified Eagle's Medium (DMEM) supplemented with 10% fetal bovine serum, 1% L-glutamine, and penicillin/streptomycin (Sigma-Aldrich). Transfections were performed using either Lipofectamine (Life Technologies), X-treme Gene DNA Transfection reagent (Roche, Indianapolis, IN) or Nanofect (Allstem, Richmond, CA). J774A.1 mouse macrophages were provided and cultured in the same media. Cells were tested for contamination using PCR-based test kits (Sartorius, Inc.; Cat #SMB95-1001).
Microscopy experiments were performed on a Zeiss Axiovert 200M (Thornwood, NY) run by Metamorph software (Sunnyvale, CA). Fixed and live cell imaging data was collected using either a Photometrics Coolsnap HQ or Cascade 1k CCD camera (Tucson, AZ). Timelapse imaging of cells expressing NPC1-EGFP and mCherry-StARD9 utilized a Dual-view camera (Photometrics) adapter to allow simultaneous acquisition of green and red channels at each timepoint. Kymographs were generated in Metamorph using a 1p m slice from each frame.
To test this idea, we treated either NPC1 mutant (null or I1061T) or StARD9 mutant (null or truncation mutant) cells with 27-HC in a cocktail that delivers it into the cytoplasm independent of receptor-mediated endocytosis. […] Next, we treated NPC1(−/−) mice with 27-HC by i.p. delivery.

Compound	Effect on LE/L tubule projection [1]	Rescue of lysosomal tubulation compared with 27-HC [2]
CC(=O)O[C@H]1C(=O)[C@@]2(C)[C@H]([C@H](OC(=O)c3ccccc3)[C@]3(O)C[C@H](OC(=O)[C@H](O)[C@@H](NC(=O)c4ccccc4)c4ccccc4)C(C)=C1C3(C)C)[C@]1(OC(C)=O)CO[C@@H]1C[C@@H]2O [taxol]	inhibited	
C[C@H](CCCC(C)(C)O)[C@H]1CC[C@H]2[C@@H]3CC=C4C[C@@H](O)CC[C@]4(C)[C@H]3CC[C@]12C [25-HC, 25-hydroxycholesterol]		significantly lower that 27-HC
COC(=O)Nc1nc2ccc(C(=O)c3cccs3)cc2[nH]1 [nocodazole]	inhibited	
CC(C)C(O)CC[C@@H](C)[C@H]1CC[C@H]2[C@@H]3CC=C4C[C@@H](O)CC[C@]4(C)[C@H]3CC[C@]12C (stereo partly shown) [24-HC, 24-hydroxycholesterol]		significantly lower that 27-HC
